# Test results: US11931365B2, “Use of PPAR-delta agonists in the treatment of disease” (Reneo Pharmaceuticals, Inc., priority 2022, dated 2024)
# Where two headings read alike, the source gives them in different places. Marks after values point to notes of the source that are not given here.
# Legend:
# [1] = system: healthy male volunteers, leg immobilization; experiment: Phase 1 placebo-controlled study in healthy volunteers with single limb immobilization; assay type: in vivo, human; parameters: Change from baseline in muscle strength, mean: unit not given beside the values
# Description: In a prior clinical trial in healthy volunteers, Compound I was administered at dose of 100 mg twice daily for 28 days in healthy volunteers during and after a single limb immobilization (see NCT01524406). The study was conducted to evaluate the impact of Compound I on the recovery of muscle atrophy from leg immobilization, and improvements in cross section area (CSA) and muscle strength parameters expected in patients treated with study drug compared to those given placebo.
# This phase 1, randomized, parallel group, placebo-controlled study was conducted at 2 centers in the United States. Fifty participants were planned for enrollment, 25 per group; participants could be replaced upon sponsor approval.
# Screening was conducted 28 days before study start; eligibility was reviewed again at prespecified times during the study. Ambulatory, non-smoking, healthy male volunteers 30 to 55 years of age with a Body Mass Index (BMI) from 18 to 30 kg/m2 were recruited for the study. Key exclusion criteria included abnormal laboratory values at screening, a recent history of body weight fluctuations, positive urine drug screens, drug dependency or illicit drug use, professional sport participation within 30 days of screening, donation of whole blood within 90 days of dosing, and donation of plasma within 30 days of dosing. Concomitant medications within 14 days of dosing were not allowed unless approved by the sponsor. Those who had enrolled in another clinical trial within 90 days or had previously received Compound II were not allowed to participate.
# Participants were randomly assigned 1:1 to receive either Compound II (100 mg BID) or matching placebo for 28 days using a computer generated randomization schedule provided by the sponsor. The principal investigator, study center staff, and participants were blinded to treatment; the protocol was amended so that sponsor personnel were not blinded. This change was made to allow investigation of observations concerning adherence to the protocol, discussed further in the pharmacodynamic results. Compound II and placebo were provided as capsules identical in appearance, taken orally with 240 ml of water prior to meals. Study drug was administered at the study site on Days 1 (PM dose), 6 (AM dose), 13 (PM dose), and 14, 15, 16, 29 (AM doses). At all other times study drug was self-administered just before breakfast and dinner. Dates and times were recorded in a diary, with compliance determined from the diaries and capsule counts. Study drug supplies were packaged according to the randomization codes by a contract research organization. Each dispensed bottle was labeled with the randomization number. Individual capsules were re-dispensed from these bottles by the study site staff, maintaining the blind. The total study duration for each subject was 42 days. Participants stayed overnight from Day 1 and Days 13 to 16.
# Standardized meals, beverages and snacks were provided during the domicile periods. On Day 1, participants were leg-immobilized using a knee brace with […] on the left leg to allow driving. Walking crutches were provided to prevent weight bearing on the immobilized leg. An accelerometer was issued at screening and was used to count the number of steps per day. Participants were to walk 4000 to 6000 steps each day for the duration of the leg immobilization period, and recorded accelerometer readings each evening before bedtime. The brace was removed on Day 14, and participants resumed normal physical activity gradually from Days 16 to 29. After stopping study drug on Day 29, participants were to resume regular daily activity gradually for another 2 weeks. Consumption of prescribed medications or over the counter products was prohibited from 14 days prior to dosing and throughout the study, with the exception of the treatment of an adverse event. Participants were not to consume alcohol or caffeine containing food and beverages 3 days before each study visit and domicile periods. […]
# [2] = Competitive slurries Form 1 / Form 2 (thermodynamic stability); assay type: physicochemical; conditions: water activities 0.4-0.8; 5, 25, 50° C.
# Description: Competitive slurries aiming to determine the order of stability between Form 1 and Form 2 were performed in a range of water activities (0.4-0.8).
# Crystalline Form 1 (2 g) and Crystalline Hydrate Form 2 (2 g) were lightly ground together using a mortar and pestle and then mixed using a roller mixer for approximately 2 hours. An XRPD was collected on this sample.
# Saturated solutions at 5° C./25° C. were prepared by suspending the mixed sample (200 mg) in 4 ml of the selected solvent and saturated solutions were prepared at 50° C. by suspending the mixed sample (100 mg) in 1 ml of the selected solvent. The saturated solutions were left stirring for 3 hrs at 25° C. and 50° C. The saturated solutions at 25° C. were filtered and split into solutions at 5° C. and 25° C. The mixed sample (50 mg) was added to the filtered solutions. Two control samples of Form 2 (50 mg) were prepared in 1 ml of acetone:water (99:1) and EtOH:water (95:5) and left stirring at 5° C., 25° C. and 50° C.
# [3] = XRPD re-analysis after GVS isotherm; assay type: physicochemical; conditions: after isotherm at 90% RH and 25° C.
# Description: The samples were recovered after completion of the isotherm experiment at 90% RH and 25° C. and re-analyzed by XRPD.
# [4] = Stability of solid state forms (storage, drying), XRPD; assay type: physicochemical
# Description: Samples were assessed for stability under ambient or static storage conditions of 25° C./[…] and 40° C./75% RH for 7 or 10 days. The samples were then re-analyzed by XRPD. Subsequent XRPD analysis results for the crystalline forms are described below: […]
# [5] = Gravimetric Vapor Sorption (GVS); assay type: physicochemical; conditions: 25° C., w/w
# Description: Sorption isotherms were obtained using a SMS DVS Intrinsic moisture sorption analyzer, controlled by DVS Intrinsic Control software. The sample temperature was maintained at 25° C. by the instrument controls. The humidity was controlled by mixing streams of dry and wet nitrogen, with a total flow rate of 200 ml/min. The relative humidity was measured by a calibrated Rotronic probe (dynamic range of 1.0-100% RH), located near the sample. The weight change, (mass relaxation) of the sample as a function of % RH was constantly monitored by a microbalance (accuracy ±0.005 mg).
# Typically, 5-30 mg of sample was placed in a tared mesh stainless steel basket under ambient conditions. The sample was loaded and unloaded at 40% RH and 25° C. (typical room conditions). A moisture sorption isotherm was performed as outlined below (2 scans per complete cycle). The standard isotherm was performed at 25° C. at 10% RH intervals over a 0-90% RH range. Typically, a double cycle (4 scans) was carried out. Data analysis was carried out within Microsoft Excel using the DVS Analysis Suite.
# [6] = Variable temperature XRPD (heating); assay type: physicochemical; conditions: heating to 110° C.
# Description: For variable temperature (VT-XRPD) experiments the samples were prepared and analyzed in an Anton Paar chromed sample holder. A heating/cooling rate of 10° C./min was used with a 2 min isothermal hold before the measurement started. The measurement parameters are as per the standard screening data collection method (detailed above). Measurements were taken at the following temperatures: […]
# [7] = system: VLCAD deficient cell line FB833; conditions: FB833 cells; WO18093839; cited from earlier work
# mice = conditions: cited from earlier work; for oxidative muscle fibers (and mitochondrial biogenesis) / physical performance / running endurance: combined with exercise
# CPT2-deficient myoblasts = conditions: Djouadi 2005; cited from earlier work
# [8] = system: patient fibroblasts (VLCAD, LCHAD, TFP deficiencies); conditions: Goddeeris 2017; cited from earlier work
# CPT2 = conditions: patient fibroblasts, mild CPT2 mutations; Djouadi 2003; cited from earlier work
# [9] = listed as crystalline Form 4 of Compound II
smiles,measurement,setting,value
"Cc1cc(OC/C=C(/c2ccc(F)cc2)c2ccc(C#CCN3CCOCC3)cc2)ccc1OCC(=O)[O-].[Na+] [Compound II, sodium (E)-2-(4-((3-(4-fluorophenyl)-3-(4-(3-morpholinoprop-1-yn-1-yl)phenyl)allyl)oxy)-2-methylphenoxy)acetate]",participants discontinued due to an adverse event of elevated CK,[1]; 100 mg BID,8.3%
same,"Change from baseline in muscle strength, mean","[1]; Day 14, 100 mg BID",−5.86
same,"Change from baseline in muscle strength, mean","[1]; Day 21, 100 mg BID",32.82
same,"Change from baseline in muscle strength, mean","[1]; Day 29, 100 mg BID",25.58
same,"Change from baseline in muscle strength, mean","[1]; Day 42, 100 mg BID",37.96
same,"increase from baseline in PDK4, ANGPTL4 and SLC25A34 expression","[1]; muscle biopsies, from Day 14",up to 3.5 fold
"Cc1cc(OC/C=C(/c2ccc(F)cc2)c2ccc(C#CCN3CCOCC3)cc2)ccc1OCC(=O)[O-].[Na+] [Form 1, sodium (E)-2-(4-((3-(4-fluorophenyl)-3-(4-(3-morpholinoprop-1-yn-1-yl)phenyl)allyl)oxy)-2-methylphenoxy)acetate]",form found in competitive slurries of Form 1 and Form 2,[2],present in most cases with no evidence of Form 2
same,Solid State Form After GVS (XRPD),[3],Unchanged (Form 1)
same,time to complete conversion to Form 2,[4]; 25° C./97% RH,4 weeks
same,XRPD form after storage,[4]; 25° C./97% RH/7 days,Form 2
same,XRPD form after storage,[4]; 40° C./75% RH/7 days,Unchanged (Form 1)
same,Reversible Water Uptake between 0-90% RH,[5],~13.0% †
same,Reversible Water Uptake between 0-90% RH,[5]; listed as crystalline Form 1 of Compound II,~13.0%
"Cc1cc(OC/C=C(/c2ccc(F)cc2)c2ccc(C#CCN3CCOCC3)cc2)ccc1OCC(=O)[O-].[Na+] [Form 4, sodium (E)-2-(4-((3-(4-fluorophenyl)-3-(4-(3-morpholinoprop-1-yn-1-yl)phenyl)allyl)oxy)-2-methylphenoxy)acetate]",XRPD after heating,[6],unchanged
same,Solid State Form After GVS (XRPD),[3],Form 2
same,Solid State Form After GVS (XRPD),[3]; [9],converts to Form 2
same,XRPD form after storage,[4]; 25° C./97% RH/7 days,Form 2
same,XRPD form after storage,"[4]; 25° C./97% RH/7 days, listed as crystalline Form 4 of Compound II",converts to Form 2
same,XRPD form after storage,[4]; 40° C./75% RH/7 days,Form 1
same,XRPD form after storage,"[4]; 40° C./75% RH/7 days, listed as crystalline Form 4 of Compound II",converts to Form 1
same,Reversible Water Uptake between 0-90% RH,[5],~23%
same,Reversible Water Uptake between 0-90% RH,[5]; [9],~23%
"Cc1cc(SCc2sc(-c3ccc(C(F)(F)F)c(F)c3)nc2C)ccc1OCC(=O)O [GW0742, [4-[[[2-[3-Fluoro-4-(trifluoromethyl)phenyl]-4-methyl-5-thiazolyl]methyl]thio]-2-methylphenoxy]acetic acid]",VLCAD enzyme activity,[7],increase
"Cc1cc(SCc2sc(-c3ccc(C(F)(F)F)cc3)nc2C)ccc1OCC(=O)O [GW501516, 2-[2-Methyl-4-[[[4-methyl-2-[4-(trifluoromethyl)phenyl]-5-thiazolyl]methyl]thio]phenoxy]acetic acid]",VLCAD enzyme activity,[7],increase
same,energy substrate usage,mice; 8 weeks,clear shift in energy substrate usage from glucose to fatty acid oxidation
same,oxidative muscle fibers (and mitochondrial biogenesis),mice; listed as GW1516,synergistically induced
same,physical performance / running endurance,mice; listed as GW1516,enhanced
same,oxidative muscle fibers (and mitochondrial biogenesis),mice,increase
same,physical performance / running endurance,mice,enhance
CC(C)(Sc1ccc(CCN(CCCCC2CCCCC2)C(=O)NC2CCCCC2)cc1)C(=O)O [GW 7647],FAO,CPT2-deficient myoblasts,had no effect
"CCCc1c(OCCCOc2ccc(OCC(=O)O)cc2)ccc(C(C)=O)c1O [L-165,0411, [4-[3-(4-Acetyl-3-hydroxy-2-propylphenoxy)propoxy]phenoxy]acetic acid]",VLCAD enzyme activity,[7],increase
Cc1cnc(-c2ccc(C(F)(F)F)cc2)n1Cc1ccccc1OCCC[C@@H](C)CC(=O)O [MA-0211],fatty acid oxidation,[8],improvements
"CC(C)(Oc1ccc(CCNC(=O)c2ccc(Cl)cc2)cc1)C(=O)O [bezafibrate, 2-(4-{2-[(4-Chlorobenzoyl)amino]ethyl}phenoxy)-2-methylpropanoic acid]",activity of the deficient enzyme (CPT2),CPT2,pharmacological enhancement
same,FAO,CPT2-deficient myoblasts,able to restore FAO
